From ChEMBL document CHEMBL1201862, “PubChem BioAssay data set” (2004)
Activity calls are given as the source filed them.

What was measured:
[1] = cytotoxicity in HEK-293T cells, dose response, cytotoxicity control for TCR NF-kB inhibitor project, luminescence, T-cell screen hits (AID 489026); assay type: functional, cell-based;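 also: cells exposed to compound about 14 hours before the viability readout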
[2] = target: T1, Protein RecA (Mycobacterium tuberculosis, UniProt P9WHJ3); experiment: Fluorescence Cell-Free Homogeneous Dose Retest to Identify Inhibitors of RecA-Intein Splicing Activity. [Related pubchem assays (depositor defined):AID2097, AID2223, AID489010, AID492950]; assay type: functional
T1 sequence (P9WHJ3 whole entry): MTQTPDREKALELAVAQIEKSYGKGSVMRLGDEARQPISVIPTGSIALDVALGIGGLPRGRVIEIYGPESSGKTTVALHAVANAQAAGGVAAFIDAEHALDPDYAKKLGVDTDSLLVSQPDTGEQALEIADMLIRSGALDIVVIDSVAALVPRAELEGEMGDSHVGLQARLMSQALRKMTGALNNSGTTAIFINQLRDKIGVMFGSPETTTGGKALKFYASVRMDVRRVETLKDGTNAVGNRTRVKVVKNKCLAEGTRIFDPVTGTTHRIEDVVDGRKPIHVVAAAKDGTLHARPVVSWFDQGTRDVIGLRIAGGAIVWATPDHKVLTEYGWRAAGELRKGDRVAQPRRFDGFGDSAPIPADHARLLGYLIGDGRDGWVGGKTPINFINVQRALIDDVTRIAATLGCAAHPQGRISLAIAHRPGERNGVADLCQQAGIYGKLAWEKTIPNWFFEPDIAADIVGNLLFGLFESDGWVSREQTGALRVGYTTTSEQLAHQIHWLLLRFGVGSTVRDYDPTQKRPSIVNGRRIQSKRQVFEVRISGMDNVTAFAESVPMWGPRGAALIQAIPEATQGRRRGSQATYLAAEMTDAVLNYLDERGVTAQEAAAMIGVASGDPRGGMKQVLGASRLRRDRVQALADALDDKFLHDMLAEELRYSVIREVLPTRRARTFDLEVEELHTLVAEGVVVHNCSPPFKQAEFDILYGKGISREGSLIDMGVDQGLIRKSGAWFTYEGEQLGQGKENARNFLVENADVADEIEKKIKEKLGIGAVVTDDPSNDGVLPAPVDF

[3] = test system: HEK293; experiment: NOD1 signaling inhibitors, primary screen, cell-based, luminescence, uHTS (AID 1578); assay type: functional; details: Homo sapiens
[4] = test system: HEK293; experiment: cells; assay type: functional, cell-based; details: Homo sapiens
[5] = test system: HEK293; experiment: NOD2 signaling inhibitors in MDP-stimulated cells, cell-based, uHTS, luminescence (AID 2001); assay type: functional; details: Homo sapiens
[6] = target: T2, RNA-binding protein pos-1 (Caenorhabditis elegans, UniProt G5EF15); experiment: inhibitors of POS-1/mex-3 RNA binding, dose response, biochemical, fluorescence polarization (AID 1964);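 also: purified POS-1 fused to maltose binding protein made in E. coli; potency of compounds blocking POS-1 binding to fluorescent RNA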
T2 sequence (G5EF15 whole entry): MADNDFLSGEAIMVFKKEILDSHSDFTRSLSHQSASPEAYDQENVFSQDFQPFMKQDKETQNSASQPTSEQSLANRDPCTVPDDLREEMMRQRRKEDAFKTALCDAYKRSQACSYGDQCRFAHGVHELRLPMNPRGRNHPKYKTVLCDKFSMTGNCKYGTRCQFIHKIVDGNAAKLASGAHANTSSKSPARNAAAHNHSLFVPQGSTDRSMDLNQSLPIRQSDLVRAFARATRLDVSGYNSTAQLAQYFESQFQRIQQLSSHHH

[7] = target: T3, Zinc finger protein mex-5 (Caenorhabditis elegans, UniProt Q9XUB2); experiment: MEX-5/TCR-2 RNA interaction inhibitors, dose response, biochemical, C. elegans, fluorescence polarization (AID 1960)
T3 sequence (Q9XUB2 whole entry): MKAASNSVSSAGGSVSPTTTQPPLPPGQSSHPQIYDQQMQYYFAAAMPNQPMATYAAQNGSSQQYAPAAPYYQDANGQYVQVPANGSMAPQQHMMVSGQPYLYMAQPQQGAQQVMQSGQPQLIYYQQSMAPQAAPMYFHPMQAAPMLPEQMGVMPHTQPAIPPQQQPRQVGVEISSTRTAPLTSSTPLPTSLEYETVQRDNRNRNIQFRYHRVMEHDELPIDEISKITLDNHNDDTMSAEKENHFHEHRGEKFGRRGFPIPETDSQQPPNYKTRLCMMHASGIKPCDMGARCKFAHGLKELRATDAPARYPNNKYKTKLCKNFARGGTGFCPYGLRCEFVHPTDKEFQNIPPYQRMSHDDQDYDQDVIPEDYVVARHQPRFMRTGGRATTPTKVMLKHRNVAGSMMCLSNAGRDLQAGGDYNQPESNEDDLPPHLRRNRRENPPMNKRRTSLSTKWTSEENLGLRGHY

[8] = inhibitors of intracellular T. cruzi replication, confirmation, NIH3T3 host cells, beta-gal luminescence (AID 2044); assay type: functional, cell-based;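 also: intracellular parasites grown in NIH/3T3 mouse fibroblasts as host cells; luminescent beta-galactosidase reporter signal from transgenic T. cruzi replicating inside host cells; inhibitors lower the luminescence signal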
[9] = cytotoxicity toward NIH3T3 fibroblasts, dose response, counter-screen, cell-based, ATP luminescence, mouse fibroblasts (AID 2010); assay type: functional;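 also: cells exposed to compound for about 90 hours before reading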
[10] = target: T4, Microphthalmia-associated transcription factor (Homo sapiens, UniProt O75030); experiment: TRPM1 promoter luciferase signal decrease, dose response, MITF inhibitor project, cell-based, SK-MEL-5, cherry-picked, set 3 (AID 493073); assay type: functional
T4 sequence (O75030 whole entry): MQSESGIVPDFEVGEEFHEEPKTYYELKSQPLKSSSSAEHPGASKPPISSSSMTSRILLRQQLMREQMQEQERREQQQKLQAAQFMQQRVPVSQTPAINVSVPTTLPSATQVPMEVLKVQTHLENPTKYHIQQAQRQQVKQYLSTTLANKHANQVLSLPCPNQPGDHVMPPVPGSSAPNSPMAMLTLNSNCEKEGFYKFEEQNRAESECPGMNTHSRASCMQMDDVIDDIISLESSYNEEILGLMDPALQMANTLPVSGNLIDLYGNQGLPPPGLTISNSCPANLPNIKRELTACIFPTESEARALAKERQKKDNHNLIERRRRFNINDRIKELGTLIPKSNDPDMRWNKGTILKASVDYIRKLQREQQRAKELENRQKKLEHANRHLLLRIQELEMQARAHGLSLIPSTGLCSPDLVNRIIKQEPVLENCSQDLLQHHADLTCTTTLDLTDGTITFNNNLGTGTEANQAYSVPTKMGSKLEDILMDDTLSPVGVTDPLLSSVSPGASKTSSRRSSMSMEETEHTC

[11] = target: UDP-galactopyranose mutase (Mycobacterium tuberculosis, UniProt P9WIQ1); experiment: Inhibitors of Mycobacterium tuberculosis UDP-galactopyranose mutase (UGM) enzyme Measured in Biochemical System Using Plate Reader - 2105-02_Inhibitor_Dose_CherryPick_Activity. [Related pubchem assays (depositor defined):AID504439]
Chain of UDP-galactopyranose mutase (P9WIQ1 whole entry): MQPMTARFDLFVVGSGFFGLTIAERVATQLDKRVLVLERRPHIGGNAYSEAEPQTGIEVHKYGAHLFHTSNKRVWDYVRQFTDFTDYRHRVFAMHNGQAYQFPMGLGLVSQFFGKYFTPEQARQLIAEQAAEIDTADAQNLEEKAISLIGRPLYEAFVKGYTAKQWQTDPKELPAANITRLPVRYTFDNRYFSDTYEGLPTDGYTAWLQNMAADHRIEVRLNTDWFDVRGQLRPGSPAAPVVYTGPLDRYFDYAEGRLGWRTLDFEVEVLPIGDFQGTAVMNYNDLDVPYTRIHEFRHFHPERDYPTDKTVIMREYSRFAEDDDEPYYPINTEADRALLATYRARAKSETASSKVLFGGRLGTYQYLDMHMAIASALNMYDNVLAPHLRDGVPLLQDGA

[12] = target: Genome polyprotein (dengue virus type 2, UniProt P29990); experiment: Dengue-2 NS5 methyltransferase inhibitors, primary screen, biochemical, confirmation dose response (AID 588689); assay type: functional
Chain of Genome polyprotein (P29990 2492-3391 limits assumed): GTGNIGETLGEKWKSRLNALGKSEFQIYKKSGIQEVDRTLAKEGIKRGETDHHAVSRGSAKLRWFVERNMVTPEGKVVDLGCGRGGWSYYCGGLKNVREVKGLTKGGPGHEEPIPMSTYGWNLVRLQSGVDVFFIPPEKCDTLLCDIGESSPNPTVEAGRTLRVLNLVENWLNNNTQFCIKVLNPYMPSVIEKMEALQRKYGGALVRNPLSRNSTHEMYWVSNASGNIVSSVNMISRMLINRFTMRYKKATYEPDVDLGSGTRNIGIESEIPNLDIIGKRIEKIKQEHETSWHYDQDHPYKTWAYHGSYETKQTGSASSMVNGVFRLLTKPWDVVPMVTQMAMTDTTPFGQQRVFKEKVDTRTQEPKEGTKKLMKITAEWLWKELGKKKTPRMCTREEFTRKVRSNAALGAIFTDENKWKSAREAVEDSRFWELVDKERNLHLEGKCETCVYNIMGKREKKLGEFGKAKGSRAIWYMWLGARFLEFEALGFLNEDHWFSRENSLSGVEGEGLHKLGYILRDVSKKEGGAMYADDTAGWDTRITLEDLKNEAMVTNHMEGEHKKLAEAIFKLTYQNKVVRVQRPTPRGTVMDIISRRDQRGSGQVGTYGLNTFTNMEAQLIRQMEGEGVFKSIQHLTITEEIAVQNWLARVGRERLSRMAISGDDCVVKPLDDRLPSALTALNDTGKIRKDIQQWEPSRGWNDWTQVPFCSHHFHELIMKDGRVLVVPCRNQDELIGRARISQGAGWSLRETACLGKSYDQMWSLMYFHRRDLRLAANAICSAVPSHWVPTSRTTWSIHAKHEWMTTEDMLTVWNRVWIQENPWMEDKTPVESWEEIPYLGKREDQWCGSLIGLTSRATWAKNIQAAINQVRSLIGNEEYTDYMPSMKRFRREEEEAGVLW

COc1ccc(CNC(=O)c2c(C)oc3c2C(=O)c2ccccc2C3=O)cc1
IC50 [1]: 21.5 µM (inactive)
EC50 [2]: 5.29 µM (active)

CCSc1nsc(NC(=O)Nc2cccc(F)c2)n1
EC50 [3]: 3.22 µM (active)
IC50 [4]: 10.8 µM (active)
IC50 [5]: 3.82 µM (inactive)

O=[N+]([O-])c1ccc(/C=N/n2cnc3ccccc32)s1
EC50 [6]: > 300 µM (inconclusive)
EC50 [7]: > 300 µM (inconclusive)
EC50 [8]: 257 nM (active)
EC50 [9]: 5.46 µM (active)
AC50 [10]: 6.25 µM (active)
AC50 [11]: 148 µM (active)

CC(C)c1ccc(S(=O)(=O)/N=C2\C=C(NS(=O)(=O)c3ccccc3)C(=O)c3ccccc32)cc1
EC50 [2]: 3.69 µM (active)
IC50 [12]: 25.7 µM (active)
